Assay results taken from patent US9572890B2, “Oral formulations of mitochondrially-targeted antioxidants and their preparation and use” (MITOTECH SA, priority 2011, dated 2017).

Key:
[1] = Stability of MTAs in liquid solvents (degradation rate); format: physicochemical
Method: Liquid solvents were also tested for their ability to stabilize representative MTAs SkQ1 and SkQR1. The solvents tested were water solutions of glycerol (10% to 100%), 50% lactulose, and 1,2-propylene glycol (10% to 100%, at 60° C.). Some representative results are shown below (Table 1).

[2] = Accelerated decay experiment of SkQ1H2/ascorbic acid powder; format: physicochemical; conditions: powder 95% ascorbic acid and 5% SkQ1H2
Method: SkQ1H2, a reduced quinole form of SkQ, was prepared as follows: 10 ml SkQ1H2 solution (with concentration 1 mg/ml) in ethanol was thoroughly mixed with 200 mg ascorbic acid and then vacuum dried.

[3] = tested on: db/db mice; experiment: Hepatic TBA-reactive substance content (MDA) in db/db diabetic mice; format: in vivo; conditions: SkQ1 in 20% glycerol, 250 nmol/kg per day orally for 12 weeks
Method: SkQ1 in 20% glycerol, as described below in Example 8 (250 nmol/kg per day) was orally administered to 10 to 12 week old homozygous db/db mice (n=8), while vehicle db/db (n=8) and non-diabetic control heterozygous db/++ (n=5) mice for 12 weeks. The hepatic TBA-reactive substance content (MDA) was determined by assay according to the method of Mihara et al. ((1978) Anal. Biochem., 86:271-278).

[4] = tested on: human endothelial cells EA.hy926; experiment: TNF-α induced death of endothelial cells (MTT test); format: cell-based; conditions: 2 nM pre-incubation 4 d; TNF-α 0.25 to 50 ng/ml for 2 d
Method: Human endothelial cell line EA.hy926 (ATCC Collection; catalog number CRL-2922) was used as a model of vascular endothelium. This cell line is similar to primary HUVEC cell line (Edgell et al. (1983) PNAS, 80(12):3734-7; Edgell et al. (1990) In Vitro Cell Dev Biol., 26(12):1167-72) and widely used as a relevant model for inflammation studies (Riesbeck et al. (1998) Clin. Vaccine Immunol., 5:5675-682).
Accordingly, human endothelial cells EA.hy926 were pre-incubated with 0.2 nM SkQR1 or 2 nM SkQ1 solution in Dulbecco's Modified Eagle's Medium (DMEM) supplemented with 10% of fetal serum (Example 1) for 4 d. After that the cells were incubated overnight with fresh DMEM medium with 0.2% of fetal serum. The cells were incubated 2 d with TNF-α (0.25 ng/ml to 50 ng/ml) and cell death was monitored using standard MTT test (Berridge et al. (1996) Biochemica, 4:14-9). The data from this assay is shown as means±S.E. at least for 3 separate experiments.

[5] = tested on: ICAM-1 mRNA expression; experiment: ICAM-1 mRNA expression induced by TNF-α in EAhy926 cells (real-time PCR); format: cell-based, human; conditions: 0.2 nM for 4 d; TNF-α 0.05 ng/ml for 4 h
From the text: (§1) The effects of SkQ1 on ICAM-1 mRNA expression and cytokines (IL-6, IL-8) protein secretion induced by TNF-α in EAhy926 human endothelial cells (ATCC collection; catalog number CRL-2922) were examined. TNF-α is a central proinflammatory cytokine stimulating expression of cell adhesion molecules and many inflammatory cytokines. Anti-inflammatory properties of many drugs often rely on their ability to inhibit expression of pro-inflammatory cytokines induced by TNF-α using EAhy926 endothelial cells (Edgell et al. (1983) Proc. Natl. Acad. Sci. USA, 80:3734-7; Lombardi et al. (2009) Eur. J. Cell. Biol., 88:731-42; Manea et al. (2010) Cell Tissue Res., 340:71-9).
(§2) 300,000 cells were plated on 60 mm^2 culture dishes and after attachment were treated with an SkQ1 solution (0.2 nM in DMEM medium with 10% fetal serum) for 4 d, and then stimulated with TNF-α (0.05 ng/ml for 4 h for ICAM-1 or 5 ng/ml for 15 h for cytokines, respectively). ICAM-1 mRNA expression was determined by real-time PCR (Okada et al. (2005) Invest. Ophtalmol. Vis. Sci., 46:4512-8). Secretion of IL-6 and IL-8 was evaluated by ELISA (Toma et al. (2009) Biochem. Biophys. Res. Commun., 390:877-82; Volanti et al. (2002) Photochem. Photobiol., 75:36-45.) The data is shown as means±S.E. at least for 3 separate experiments.

[6] = tested on: cytokines (IL-6, IL-8) protein secretion; experiment: IL-6, IL-8 protein secretion induced by TNF-α in EAhy926 cells (ELISA); format: cell-based, human; conditions: 0.2 nM for 4 d; TNF-α 5 ng/ml for 15 h
From the text: as §1, §2

[7] = tested on: ICAM-1 mRNA; experiment: ICAM-1 mRNA level in aortas of old mice; format: in vivo; conditions: 24 months old C57Black/CBA mice; SkQ1 in drinking water for 7 months
Method: As described above in Example 7A, above, the expression of ICAM-1 is elevated under many pathological vascular conditions. SkQ1 efficacy in reducing ICAM-1 expression in vivo was tested on mice. 30 hybrid male C57Black/CBA mice were divided into 3 experimental groups (10 animals in each group) at the beginning of the experiment. The group “Young mice” included mice at the age of 6 months. Groups “Old mice” and “Old mice, SkQ1” included mice at the age of 24 months. The group “Old mice, SkQ1” had free access to drinking water with 100 nM water-dissolved SkQ1 per 1 kg of body weight for 7 months. After this period, the animals were decapitated. Aortas were excised, and total RNA was isolated using […] Blood and Tissue kit (QIAGEN), reverse-transcribed into cDNA, and used for quantitative real-time PCR analysis of ICAM-1 mRNA level. For the normalization procedure the average geometry of expression levels of housekeeping genes GAPDH and RPL32 was used Data are shown as means±S.E.M.

[8] = tested on: endothelial cells; experiment: TNFα-caused dysfunction of endothelial barrier (microscopy of VE-cadherin, beta-cathenin, F-actin); format: cell-based
[9] = tested on: NFκB; experiment: NFκB activation caused by TNFα; format: cell-based
From the text: Additionally, SkQ1 decreases the phosphorylation and degradation of IkBa caused by TNFα. NFκB is known to be permanently active in many inflammatory diseases, such as inflammatory bowel disease, arthritis, sepsis, gastritis, asthma and atherosclerosis (Monaco et al. (2004) PNAS., 101:5634-9).

Degradation rate, percent per day ([1]; 400 mkM in 10% 1,2-propylene glycol, at 60° C.): 0.47 percent per day
Degradation rate, percent per day ([1]; 400 mkM in 10% Glycerol): 0.61 percent per day
Degradation rate, percent per day ([1]; 400 mkM in 20% Glycerol): 0.51 percent per day
Degradation rate, percent per day ([1]; 400 mkM in 30% Glycerol): 0.53 percent per day
Degradation rate, percent per day ([1]; 400 mkM in 40% Glycerol): 0.91 percent per day
Degradation rate, percent per day ([1]; 400 mkM in 50% 1,2-propylene glycol, at 60° C.): 0.06 percent per day
Degradation rate, percent per day ([1]; 400 mkM in 50% Glycerol): 1.54 percent per day
Degradation rate, percent per day ([1]; 400 mkM in 50% lactulose): 9.01 percent per day
Degradation rate, percent per day ([1]; 400 mkM in 60% Glycerol): 1.92 percent per day
Degradation rate, percent per day ([1]; 400 mkM in 70% Glycerol): 2.4 percent per day
Degradation rate, percent per day ([1]; 400 mkM in 80% Glycerol): 3.2 percent per day
Degradation rate, percent per day ([1]; 400 mkM in 90% Glycerol): 4.18 percent per day
Degradation rate, percent per day ([1]; 400 mkM in 100% 1,2-propylene glycol, at 60° C.): 0.18 percent per day
SkQ1 purity ([2]; after storage for 12 d at 60° C.): 95.1%
loss from the initial concentration of the active compound ([2]; calculated for storage for 1 year at 4° C.): approximately 3.5%
SkQ1 purity ([2]; initial): 98.7%
SMILES: CC1=C(C)C(=O)C(CCCCCCCCCC[P+](c2ccccc2)(c2ccccc2)c2ccccc2)=CC1=O [SkQ1]
MDA levels in the liver [3]: significantly lowered
cell death compared to control without MTA [4]: greatly reduced
expression of ICAM-1 [5]: prevents excessive expression
expression of inflammatory cytokines (IL-6, IL-8) [6]: prevents excessive expression
ICAM-1 mRNA levels in aorta of treated old mice compared to the control group [7]: significantly lowered
disassembling of intracellular contacts and cytoskeleton reorganization caused by TNFα [8]: prevented
activation of NFκB [9]: prevent activation
phosphorylation and degradation of IkBa caused by TNFα [9]: decreases
translocation of transcription factor p65 (RelA) from the cytoplasm to the nucleus [9]: prevent translocation
